Measurements reported in patent publication US20090087889A1, “Methods and compositions for growth hydrocarbons in botryococcus sp” (priority 2005, published 2009).

Test system: Botryococcus sp. colonies
Assay: Flotation (buoyancy) of bottom-dwelling colonies as visual assay of hydrocarbon content
Format: cell-based
Source text: Previous investigations (Ohmori, et al. 1984; and Wolf, et al, 1985) verified that colonies containing greater than 20% of dry weight as botryococcenoid hydrocarbons were buoyant and that colonies containing less than 5% hydrocarbons remained sunken at the bottom of the culture vessel, providing a visual method for selecting cells with commercial-grade hydrocarbons. […] Colonies in hydrocarbon-enhancement were placed […] without supplemental carbon dioxide gas to eliminate artifacts of flotation from bubbles. Environmental conditions were 150 μE/m^2/sec PAR to 1700 μE/m^2/sec PAR at 25-37° Centigrade. Nutrient chemicals were reagent grade in all laboratory-scale experiments. In field-scale tests, fertilizer grade chemical nutrients were provided. In order to minimize or eliminate ammonia, nitrates were optionally kiln dried prior to admixture. Supplementation with 0.1% to 100% carbon dioxide gas or carbonate (e.g., 10 mg/ml sodium bicarbonate or potassium bicarbonate) increased hydrocarbon synthesis substantially, especially, when under the highest light intensities with soluble elements of the present invention.
Stock cultures were taken from bottom-dwelling colonies that had been maintained in conventional liquid culture media, typified by approximately 1 ppm to 10 ppm phosphate, 0.01 ppm to 0.3 ppm iron, and 0.01 ppm to 0.5 ppm zinc, as for example, in Showa medium and other phycological media. Aqueous nutrient solutions were placed in sterile culture tubes and flasks and steam sterilized twice for 60 minutes. Following inoculation and growth, colonies were concentrated with overnight settling and approximately one million submerged green colonies were collected from the bottom of culture vessels. Equal volumes were resuspended into replicate culture vessels with equal volumes of enhancement media in the highest light intensities available in preparation for experiments. Control cultures were transferred into equal volumes of Showa medium and placed side by side under identical conditions as controls.

[Zn+2] [Zn^+2]
colour of colonies after long exposure (100 ppm Zn^+2, approximately two to eight weeks): color change of the colonies toward amber

phosphates
colour of colonies after long exposure (200 mM to 300 mM phosphates, approximately two to eight weeks): color change of the colonies toward amber | state of colonies after long exposure (after two weeks or more in 300 mM phosphate): remained floating, but cleared to amber | time until bottom-dwelling colonies began to rise to the surface (in water with up to 300 mM phosphates): ≤ 5 h | total phosphate concentration that stimulated the rise of colonies to the surface (subtractive matrix analysis, most rapid in presence of soluble Mg, Mn, Fe and Zn^+2): greater than 80 mM
